The results in this text go back to patent US20040143009A1, “Amines, uses thereof” (L'OREAL, priority 2002, published 2004).

Structures are written as SMILES.

In experiment [1] the test system is rat-isolated phrenic nerve/diaphragm (striated muscle) preparation. Nature of the experiment: Nerve/muscle (motor plate) junction model, isolated phrenic nerve/diaphragm preparation. The following applies: at 10^-4 M. As to the method:
Compound 1 was tested on a nerve/muscle (motor plate) junction model obtained in a rat-isolated phrenic nerve/diaphragm (striated muscle) preparation (Pollard B. J. et al., Br. J. Anaesth., 1988, 61, 419-424).
(§1) This test is predictive of an antiwrinkle effect, as was verified by the applicant on diazepam, which is both active in vivo in humans and in this test at 10^−4 M.
The phrenic nerve and the diaphragm are carefully isolated and placed in a 50 ml tank filled with survival fluid (Krebs Henseleit fluid) kept at a temperature of 37° C. and oxygenated with an oxygen/CO2 (95/5) mixture.
Variations in the tension of the diaphragm are recorded with an initial preload of several grams.
After a relaxation period of 30 min, the diaphragm is indirectly stimulated by means of the phrenic nerve.
On each preparation, the effect of the test compound was evaluated on contractions induced by indirect stimulation via stimulation on the phrenic nerve (0.1 to 0.5 volts, 0.3 ms, 0.1 Hz). Alverine, known as a muscle-relaxing compound with antiwrinkle effect according to application FR-2 798 590, is used as control.

Experiment [2] in a line: Antiwrinkle effect in vivo in humans.
From the text: as §1

Take `CN1C(=O)CN=C(c2ccccc2)c2cc(Cl)ccc21` [diazepam]: in experiment [1], the “activity in the nerve/muscle junction test” value is “active”. Moreover, in experiment [2], the “antiwrinkle activity in vivo in humans” value was “active”.
